IC50 data for one compound are collected here from BindingDB's records for doi:10.1021/jm00195a008 (1979).

For this assay, the target named is DNA-directed RNA polymerase subunit alpha/beta/beta'/omega (Escherichia coli (strain K12), UniProt P0A7Z4+P0A800+P0A8T7+P0A8V2). Description: Inhibition of Escherichia coli DNA-dependent RNA polymerase.

The structures appear in SMILES notation.

Sequence of DNA-directed RNA polymerase subunit alpha/beta/beta'/omega (P0A8V2 whole entry): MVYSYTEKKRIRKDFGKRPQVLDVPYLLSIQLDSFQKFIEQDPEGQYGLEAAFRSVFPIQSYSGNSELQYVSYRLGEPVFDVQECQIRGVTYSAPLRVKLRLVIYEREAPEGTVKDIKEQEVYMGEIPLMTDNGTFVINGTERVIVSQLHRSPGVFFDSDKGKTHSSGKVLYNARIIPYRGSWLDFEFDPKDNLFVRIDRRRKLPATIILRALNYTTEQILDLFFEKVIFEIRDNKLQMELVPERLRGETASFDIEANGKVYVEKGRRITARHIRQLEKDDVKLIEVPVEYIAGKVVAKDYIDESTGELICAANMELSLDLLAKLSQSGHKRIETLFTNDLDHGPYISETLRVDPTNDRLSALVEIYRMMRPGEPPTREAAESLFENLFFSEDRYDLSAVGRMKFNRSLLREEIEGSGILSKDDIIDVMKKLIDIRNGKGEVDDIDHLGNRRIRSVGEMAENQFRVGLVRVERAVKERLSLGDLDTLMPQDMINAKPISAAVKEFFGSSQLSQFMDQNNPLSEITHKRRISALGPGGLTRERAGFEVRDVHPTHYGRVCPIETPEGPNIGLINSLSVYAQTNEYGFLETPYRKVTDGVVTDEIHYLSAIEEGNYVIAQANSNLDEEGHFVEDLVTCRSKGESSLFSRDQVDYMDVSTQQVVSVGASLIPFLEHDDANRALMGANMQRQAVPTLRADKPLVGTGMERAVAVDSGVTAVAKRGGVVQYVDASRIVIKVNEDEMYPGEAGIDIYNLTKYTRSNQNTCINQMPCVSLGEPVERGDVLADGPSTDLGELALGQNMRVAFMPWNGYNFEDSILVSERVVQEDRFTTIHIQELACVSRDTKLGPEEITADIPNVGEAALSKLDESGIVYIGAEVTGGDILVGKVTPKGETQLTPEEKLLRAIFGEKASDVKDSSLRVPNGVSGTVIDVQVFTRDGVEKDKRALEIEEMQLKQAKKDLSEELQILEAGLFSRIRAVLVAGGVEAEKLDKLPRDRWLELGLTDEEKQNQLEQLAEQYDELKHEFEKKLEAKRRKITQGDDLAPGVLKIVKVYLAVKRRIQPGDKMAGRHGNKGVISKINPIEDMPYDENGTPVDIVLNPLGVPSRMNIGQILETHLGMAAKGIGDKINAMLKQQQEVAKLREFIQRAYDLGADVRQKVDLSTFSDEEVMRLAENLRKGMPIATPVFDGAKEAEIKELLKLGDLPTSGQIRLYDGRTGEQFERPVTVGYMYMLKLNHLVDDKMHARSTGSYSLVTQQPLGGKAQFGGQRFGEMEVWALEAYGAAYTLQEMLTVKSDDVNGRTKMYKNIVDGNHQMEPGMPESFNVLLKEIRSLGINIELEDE
Sequence of DNA-directed RNA polymerase subunit alpha/beta/beta'/omega (P0A7Z4 whole entry): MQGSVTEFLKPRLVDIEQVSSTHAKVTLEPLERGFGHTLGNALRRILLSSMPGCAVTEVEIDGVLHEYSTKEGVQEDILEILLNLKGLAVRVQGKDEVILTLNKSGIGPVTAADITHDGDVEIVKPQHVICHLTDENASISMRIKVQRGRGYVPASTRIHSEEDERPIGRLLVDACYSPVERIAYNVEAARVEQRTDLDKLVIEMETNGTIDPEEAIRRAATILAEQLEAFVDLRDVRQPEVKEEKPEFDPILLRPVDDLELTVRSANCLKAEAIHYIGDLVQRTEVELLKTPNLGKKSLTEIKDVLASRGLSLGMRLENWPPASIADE
Sequence of DNA-directed RNA polymerase subunit alpha/beta/beta'/omega (P0A8T7 whole entry): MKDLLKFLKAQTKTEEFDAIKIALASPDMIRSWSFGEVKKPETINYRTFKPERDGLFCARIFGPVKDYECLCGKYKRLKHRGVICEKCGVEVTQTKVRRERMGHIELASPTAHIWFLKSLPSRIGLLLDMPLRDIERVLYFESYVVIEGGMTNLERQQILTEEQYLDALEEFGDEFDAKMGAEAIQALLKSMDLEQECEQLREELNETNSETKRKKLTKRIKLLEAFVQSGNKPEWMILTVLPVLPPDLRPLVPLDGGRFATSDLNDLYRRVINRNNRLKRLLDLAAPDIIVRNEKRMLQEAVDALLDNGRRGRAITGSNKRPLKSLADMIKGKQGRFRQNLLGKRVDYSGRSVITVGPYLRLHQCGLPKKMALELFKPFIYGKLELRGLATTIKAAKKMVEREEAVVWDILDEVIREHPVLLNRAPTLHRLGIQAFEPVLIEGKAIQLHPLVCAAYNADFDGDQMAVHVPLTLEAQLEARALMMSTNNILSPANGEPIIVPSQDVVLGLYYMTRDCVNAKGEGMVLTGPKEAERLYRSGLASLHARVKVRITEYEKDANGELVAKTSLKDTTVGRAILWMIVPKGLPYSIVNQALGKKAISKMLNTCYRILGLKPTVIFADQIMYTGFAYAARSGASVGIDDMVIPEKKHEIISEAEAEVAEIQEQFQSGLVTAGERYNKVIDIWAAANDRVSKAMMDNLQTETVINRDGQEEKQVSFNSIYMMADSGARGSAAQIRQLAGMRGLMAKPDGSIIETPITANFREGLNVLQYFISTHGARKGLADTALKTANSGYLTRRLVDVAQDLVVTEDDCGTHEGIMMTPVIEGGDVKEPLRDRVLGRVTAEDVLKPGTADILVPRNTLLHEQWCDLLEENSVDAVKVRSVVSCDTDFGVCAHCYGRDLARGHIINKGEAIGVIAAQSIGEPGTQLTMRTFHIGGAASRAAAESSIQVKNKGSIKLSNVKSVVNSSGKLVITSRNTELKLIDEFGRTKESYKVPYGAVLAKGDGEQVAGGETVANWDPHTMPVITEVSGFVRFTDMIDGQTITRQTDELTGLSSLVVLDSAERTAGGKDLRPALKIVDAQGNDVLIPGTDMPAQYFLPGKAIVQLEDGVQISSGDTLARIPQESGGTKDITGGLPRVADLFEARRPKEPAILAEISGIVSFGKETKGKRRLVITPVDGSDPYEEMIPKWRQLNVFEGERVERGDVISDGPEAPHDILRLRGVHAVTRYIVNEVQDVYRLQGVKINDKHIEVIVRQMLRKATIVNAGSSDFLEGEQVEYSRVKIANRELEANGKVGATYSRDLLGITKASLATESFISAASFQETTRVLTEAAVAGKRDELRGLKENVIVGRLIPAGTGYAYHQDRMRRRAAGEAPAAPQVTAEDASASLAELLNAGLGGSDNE
Sequence of DNA-directed RNA polymerase subunit alpha/beta/beta'/omega (P0A800 whole entry): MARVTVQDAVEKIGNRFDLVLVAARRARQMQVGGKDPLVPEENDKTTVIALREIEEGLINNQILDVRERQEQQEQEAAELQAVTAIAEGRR

As to `Cc1c2oc3c(C)ccc(C(=O)N[C@@H]4C(=O)N[C@H](C(C)C)C(=O)N5CCC[C@H]5C(=O)N(C)CC(=O)N(C)[C@@H](C(C)C)C(=O)O[C@@H]4C)c3nc-2c(C(=O)N[C@@H]2C(=O)N[C@H](C(C)C)C(=O)N3CCC[C@H]3C(=O)N(C)CC(=O)N(C)[C@@H](C(C)C)C(=O)O[C@@H]2C)c(NC2CC(C)(C)[N+]([O-])C(C)(C)C2)c1=O`, the IC50 (commonly the concentration that inhibits the measured activity by half) turned out to be 2800 nM. This counts as single-digit micromolar.
